The values below come from PubChem BioAssay AID328 (DTP/NCI, 2004).

Where “and” joins values, the source holds several entries; their conditions need not be identical. Equal entries are not always repeated. Toxic doses and inconclusive results are not listed. Residues, ends and D or L forms follow the SMILES beside them. *: point of attachment. Cbz = O=C(OCc1ccccc1)*

This test concerns BDF1 mice, P388 leukemia ip, median survival T/C. As to the kind of experiment: NCI In Vivo Anticancer Drug Screen. Data for tumor model P388 Leukemia (intraperitoneal) in B6D2F1 (BDF1) mice. The note with it: endpoint: median survival time, higher = longer survival. In a few lines: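 Antitumour effect was judged in vivo: survival in drug-treated mice, normalised to that of vehicle-dosed controls, gives the reported T/C.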

Where [1] appears, read: dose: 50.0 mg/kg/injection, schedule: Q04DX003 (ip), vehicle: saline.
[2] abbreviates: dose: 100.0 mg/kg/injection, schedule: Q04DX003 (ip), vehicle: Klucel (hydroxypropylcellulose) (HPC).
Where [3] appears, read: dose: 200.0 mg/kg/injection, schedule: Q04DX003 (ip), vehicle: Klucel (hydroxypropylcellulose) (HPC).
[4] abbreviates: dose: 400.0 mg/kg/injection, schedule: Q04DX003 (ip), vehicle: Klucel (hydroxypropylcellulose) (HPC).
The mark [5] stands for this setting: dose: 100.0 mg/kg/injection, schedule: Q01DX009 (ip), vehicle: saline with Tween-80.
Setting [6] is: dose: 100.0 mg/kg/injection, schedule: Q04DX003 (ip), vehicle: saline with Tween-80.
The mark [7] stands for this setting: dose: 200.0 mg/kg/injection, schedule: Q01DX009 (ip), vehicle: saline with Tween-80.
Where [8] appears, read: dose: 12.5 mg/kg/injection, schedule: Q01DX009 (ip), vehicle: saline.
Where [9] appears, read: dose: 25.0 mg/kg/injection, schedule: Q04DX003 (ip), vehicle: saline.
[10] abbreviates: dose: 25.0 mg/kg/injection, schedule: Q01DX009 (ip), vehicle: saline.

As to `O=C(O)C1CCCN1C(=O)C1CCCN1C(=O)OCc1ccccc1` (stereo not drawn) (Cbz-Pro-Pro-OH; configuration not given here), the T/C (dose: 50.0 mg/kg/injection, schedule: Q01DX005 (ip), vehicle: saline) is 101 % of control; the T/C (dose: 100.0 mg/kg/injection, schedule: Q01DX005 (ip), vehicle: saline) was 101 % of control; the T/C (dose: 200.0 mg/kg/injection, schedule: Q01DX005 (ip), vehicle: saline) was 107 % of control.
Take `O=c1[nH]c2nc(Cl)c(Cl)nc2[nH]1`: the T/C runs as follows: under setting [1], 113 % of control; (dose: 100.0 mg/kg/injection, schedule: Q04DX003 (ip), vehicle: saline) 106 % of control; (dose: 200.0 mg/kg/injection, schedule: Q04DX003 (ip), vehicle: saline) 111 % of control.
With `COC1=C(c2ccccc2)C(=O)CCc2ccccc21`, the T/C was 100 % of control under setting [2], 100 % of control under setting [3] and 100 % of control under setting [4].
On to `Cc1ccc(C(=O)O)cc1S(=O)(=O)Cl`, for which the T/C by setting is: (dose: 4.0 mg/kg/injection, schedule: Q01DX009 (ip), vehicle: saline with Tween-80) 117 % of control; (dose: 8.0 mg/kg/injection, schedule: Q01DX009 (ip), vehicle: saline with Tween-80) 110 % of control; (dose: 16.0 mg/kg/injection, schedule: Q01DX009 (ip), vehicle: saline with Tween-80) 90 % of control; (dose: 25.0 mg/kg/injection, schedule: Q01DX009 (ip), vehicle: saline with Tween-80) 104 % of control; (dose: 32.0 mg/kg/injection, schedule: Q01DX009 (ip), vehicle: saline with Tween-80) 117 % of control; (dose: 50.0 mg/kg/injection, schedule: Q01DX009 (ip), vehicle: saline with Tween-80) 95 % of control. Further, the T/C is 106 % of control (dose: 50.0 mg/kg/injection, schedule: Q04DX003 (ip), vehicle: saline with Tween-80); 98 % of control under setting [5]; 100 % of control under setting [6]; 95 % of control under setting [7].
For `CC(C)(C)C#C[P+](C#CC(C)(C)C)(Cc1ccccc1)c1ccccc1`, the T/C by setting is: under setting [8], 96 % of control; (dose: 12.5 mg/kg/injection, schedule: Q04DX003 (ip), vehicle: saline) 123 % of control; under setting [9], 123 % of control; under setting [1], 107 % of control.
Take `CCCCCCCCCCCCCC[S+](C)C`: the T/C is, setting by setting: under setting [8], 118 % of control; under setting [10], 100 % of control; under setting [9], 100 % of control; under setting [1], 104 % of control.
As to `CC1CCC[N-]C1.CC1CCC[N-]C1.[Cl][Pt+2]([Cl])([Cl])[Cl]` (stereo not drawn), the T/C by setting is: (dose: 3.12 mg/kg/injection, schedule: Q01DX009 (ip), vehicle: saline) 150 % of control and 154 % of control; (dose: 6.25 mg/kg/injection, schedule: Q01DX009 (ip), vehicle: saline) 172 % of control; (dose: 8.2 mg/kg/injection, schedule: Q01DX009 (ip), vehicle: saline) 161 % of control; under setting [10], 154 % of control.
With `OCc1ccccc1F`, the T/C is, setting by setting: under setting [5], 88 % of control; under setting [6], 100 % of control; under setting [7], 103 % of control; (dose: 200.0 mg/kg/injection, schedule: Q04DX003 (ip), vehicle: saline with Tween-80) 109 % of control; (dose: 400.0 mg/kg/injection, schedule: Q01DX009 (ip), vehicle: saline with Tween-80) 111 % of control.
Consider `COC(=O)c1c([N+](=O)[O-])cccc1[N+](=O)[O-]`, for which the T/C (dose: 50.0 mg/kg/injection, schedule: Q01DX005 (ip), vehicle: saline with Tween-80) was 97 % of control; the T/C (dose: 100.0 mg/kg/injection, schedule: Q01DX005 (ip), vehicle: saline with Tween-80) was 97 % of control; the T/C (dose: 200.0 mg/kg/injection, schedule: Q01DX005 (ip), vehicle: saline with Tween-80) is 94 % of control.
As to `O=NN1CCCNC1=O`, the T/C was 245 % of control (dose: 66.0 mg/kg/injection, schedule: Q04DX003 (ip), vehicle: saline with Tween-80) and 116 % of control under setting [6].
With `CO[C@H](C)[C@](O)(C(=O)OCC1=CC[N+]2([O-])CC[C@H](O)[C@@H]12)C(C)C` (stereo partly drawn), the T/C is, setting by setting: (dose: 40.0 mg/kg/injection, schedule: Q01DX010 (ip), vehicle: saline) 100 % of control; (dose: 80.0 mg/kg/injection, schedule: Q01DX010 (ip), vehicle: saline) 105 % of control; (dose: 160.0 mg/kg/injection, schedule: Q01DX010 (ip), vehicle: saline) 116 % of control; (dose: 200.0 mg/kg/injection, schedule: Q01DX007 (ip), vehicle: water) 117 % of control; (dose: 400.0 mg/kg/injection, schedule: Q01DX007 (ip), vehicle: water) 119 % of control; (dose: 800.0 mg/kg/injection, schedule: Q01DX007 (ip), vehicle: water) 119 % of control. The T/C (dose: 1600.0 mg/kg/injection, schedule: Q01DX007 (ip), vehicle: water) was 94 % of control.
Take `c1ccc(C2SCSCS2)cc1`: the T/C by setting is: under setting [2], 100 % of control; under setting [3], 95 % of control; under setting [4], 95 % of control.
Consider `O=C(CC(O)(C(F)(F)F)C(F)(F)F)c1ccc(F)cc1`, for which, under “dose: 100.0 mg/kg/injection, schedule: Q04DX003 (ip), vehicle: other”, the T/C is 120 % of control.
Turning to `OCCSc1ncc2cnccn12`, the T/C reads like this: (dose: 100.0 mg/kg/injection, schedule: Q04DX003 (ip), vehicle: water) 109 % of control; (dose: 200.0 mg/kg/injection, schedule: Q04DX003 (ip), vehicle: water) 109 % of control; (dose: 400.0 mg/kg/injection, schedule: Q04DX003 (ip), vehicle: water) 109 % of control.
In the case of `CC1(C)CC2(OC2c2ccccc2)C(C)(O)c2ccccc21` (stereo not drawn), the T/C is 95 % of control (dose: 100.0 mg/kg/injection, schedule: Q01DX009 (ip), vehicle: Klucel (hydroxypropylcellulose) (HPC)); 110 % of control under setting [2]; 90 % of control (dose: 200.0 mg/kg/injection, schedule: Q01DX009 (ip), vehicle: Klucel (hydroxypropylcellulose) (HPC)); 105 % of control under setting [3]; 100 % of control (dose: 400.0 mg/kg/injection, schedule: Q01DX009 (ip), vehicle: Klucel (hydroxypropylcellulose) (HPC)); 105 % of control under setting [4].
On to `CC(C)c1ccccc1OS(=O)(=O)c1c(F)c(F)c(F)c(F)c1F`, for which the T/C by setting is: (dose: 6.25 mg/kg/injection, schedule: Q01DX001 (ip), vehicle: saline with Tween-80) 104 % of control; (dose: 12.5 mg/kg/injection, schedule: Q01DX001 (ip), vehicle: saline with Tween-80) 109 % of control; (dose: 25.0 mg/kg/injection, schedule: Q01DX001 (ip), vehicle: saline with Tween-80) 118 % of control.
Consider `CNc1cc(C(C)C)ccc1C`, for which the T/C (dose: 32.5 mg/kg/injection, schedule: Q01DX009 (sc), vehicle: olive oil, sesame oil, peanut oil) was 104 % of control; the T/C (dose: 65.0 mg/kg/injection, schedule: Q01DX009 (sc), vehicle: olive oil, sesame oil, peanut oil) is 104 % of control; the T/C (dose: 100.0 mg/kg/injection, schedule: Q04DX003 (sc), vehicle: olive oil, sesame oil, peanut oil) was 104 % of control; the T/C (dose: 130.0 mg/kg/injection, schedule: Q01DX009 (sc), vehicle: olive oil, sesame oil, peanut oil) is 100 % of control; the T/C (dose: 200.0 mg/kg/injection, schedule: Q04DX003 (sc), vehicle: olive oil, sesame oil, peanut oil) was 109 % of control; the T/C (dose: 400.0 mg/kg/injection, schedule: Q04DX003 (sc), vehicle: olive oil, sesame oil, peanut oil) was 118 % of control.
As to `Cc1c2oc3c(C)c(N)cc(C(=O)NC4C(=O)NC(C(C)C)C(=O)N5CCCC5C(=O)N(C)CC(=O)N(C)C(C(C)C)C(=O)OC4C)c3nc-2c(C(=O)NC2C(=O)NC(C(C)C)C(=O)N3CCCC3C(=O)N(C)CC(=O)N(C)C(C(C)C)C(=O)OC2C)c(N)c1=O` (stereo not drawn), the T/C is 153 % of control (dose: 75.0 micrograms/kg/injection, schedule: Q01DX009 (ip), vehicle: saline + alcohol); 151 % of control (dose: 225.0 micrograms/kg/injection, schedule: Q04DX003 (ip), vehicle: saline + alcohol); 90 % of control (dose: 450.0 micrograms/kg/injection, schedule: Q04DX003 (ip), vehicle: saline + alcohol).
